In patent US12195427B2, “MASP-2 inhibitors and methods of use” (priority 2018, dated 2025):
Each block holds one molecule with its values, some of them ahead of it.

Target: MASP-2 CCP2-SP (Homo sapiens (Human), UniProt O00187)
Test: MASP-2 co-crystallization, X-ray crystallography and structure analysis (H-bonds, van der Waals contacts);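 for Ligand-pharmacophore element distance, pharmacophore element C2: distance from averaged pharmacophore element to bound ligand; missing value means element absent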;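 for Ligand-pharmacophore element distance, pharmacophore element C3: distance from averaged pharmacophore element to bound ligand; missing value means element absent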;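 for Ligand-pharmacophore element distance, pharmacophore element C4: distance from averaged pharmacophore element to bound ligand; missing value means element absent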;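 for Ligand-pharmacophore element distance, pharmacophore element C5: distance from averaged pharmacophore element to bound ligand; missing value means element absent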
Parameters: van der Waals contact distance, MASP-2 HIS 483 atom CD2 / van der Waals contact distance, MASP-2 HIS 483 atom NE2 / van der Waals contact distance, SER 654 C to compound atom / van der Waals contact distance, SER 654 O to compound atom / van der Waals contact distance, TRP 655 C to compound atom / van der Waals contact distance, MASP-2 GLY 528 atom CA / van der Waals contact distance TRP 655 atom CZ3 / van der Waals contact distance TRP 655 atom N / van der Waals contact distance TRP 655 atom CE3 / van der Waals contact distance GLY 656 atom C / van der Waals contact distance GLY 656 atom CA / van der Waals contact distance GLY 656 atom O / van der Waals contact distance, MASP-2 TYR 607 atom CD1 / van der Waals contact distance, MASP-2 PRO 606 atom O / d(C3,CA1) / d(CA1,N1)2 / d(H4,O1) / d(H4,O2) / d(O1,O2) / d(CA1,O2) / d(CA6,O1) / d(CA6,O2) / d(CA1,C5) / d(O2,H3) / d(N2,C2) / d(CA5,N2) / d(N2,C4) / d(N2,C6) / d(N2,CA3) / d(N2,O3) / d(O4,H2): unit not given beside the values
Settings: for Ligand-pharmacophore element distance, pharmacophore element C2 / Ligand-pharmacophore element distance, pharmacophore element C3 / Ligand-pharmacophore element distance, pharmacophore element C4 / Ligand-pharmacophore element distance, pharmacophore element C5 / Ligand-pharmacophore element distance, pharmacophore element C6 / Ligand-pharmacophore element distance, pharmacophore element C7 / Ligand-pharmacophore element distance, pharmacophore element CA1 / Ligand-pharmacophore element distance, pharmacophore element CA2 / Ligand-pharmacophore element distance, pharmacophore element CA3 / Ligand-pharmacophore element distance, pharmacophore element CA4 / Ligand-pharmacophore element distance, pharmacophore element CA5 / Ligand-pharmacophore element distance, pharmacophore element CA6: Table A4-1; for a(O1, O2, H3) / a(O1, O2, N2) / a(O2, N2, C2) / a(O2, N2, CA2): Table A6-2 pharmacophore angle; for Pharmacophore protein distance to MET_658 (first MET_658 column) / Pharmacophore protein distance to MET_658 (second MET_658 column) / Pharmacophore protein distance to GLY_528 / Pharmacophore protein distance to PHE_529 / Pharmacophore protein distance to PRO_608 / Pharmacophore protein distance to SER_611 / Pharmacophore protein distance to TRP_655: Table A8-6, nearest protein atom in cell to the left; for Pharmacophore protein distance to MET_658 (first MET_658 column): 6th residue column; for Pharmacophore protein distance to MET_658 (second MET_658 column): 9th residue column; for Pharmacophore protein distance to TRP_655: pharmacophore elements C6, CA3, O3, H1
Outline: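 First, CCP2-SP constructs with or without a 6His tag are produced in E. coli. Crystals are then soaked once or twice with inhibitor, cryoprotected in 20% glycerol or frozen directly, and diffracted at synchrotron beamlines. Phasing uses molecular replacement with parts of 1Q3X.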

[1] = Table A5-1 pharmacophore: distance between elements, S2/S1 region
[2] = Table A5-2 pharmacophore distance, S3/S4 region
[3] = Table A7-1, between pharmacophore elements of the bound compound
[4] = Table A7-2, between pharmacophore elements of the bound compound

Sequence of MASP-2 CCP2-SP (O00187 445-686): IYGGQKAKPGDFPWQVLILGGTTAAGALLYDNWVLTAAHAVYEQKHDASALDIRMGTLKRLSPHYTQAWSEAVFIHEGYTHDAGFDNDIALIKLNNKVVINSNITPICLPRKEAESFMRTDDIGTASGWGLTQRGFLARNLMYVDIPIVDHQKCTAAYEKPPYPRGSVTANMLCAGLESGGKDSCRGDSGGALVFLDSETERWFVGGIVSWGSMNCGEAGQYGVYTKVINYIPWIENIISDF
Sequence of MASP-2 CCP2-SP (O00187 364-432 partner): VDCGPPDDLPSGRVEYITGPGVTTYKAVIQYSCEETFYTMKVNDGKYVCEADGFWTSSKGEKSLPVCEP

H-bond distance to MASP-2 ASP 627 atom OD1 (Table A1 (H-Bonds), ASP 627 OD1): 2.9
H-bond distance to MASP-2 GLN 665 atom OE1 (Table A1 (H-Bonds), GLN 665 OE1): 3.26
H-bond distance to MASP-2 GLN 665 atom OE1 (second bond) (Table A1 (H-Bonds), GLN 665 OE1, second column): 2.8
H-bond distance to MASP-2 GLY 656 atom N (Table A1 (H-Bonds), GLY 656 N): 2.91
H-bond distance to MASP-2 SER 628 atom O (Table A1 (H-Bonds), SER 628 O): 2.91
H-bond distance to MASP-2 SER 654 atom O (Table A1 (H-Bonds), SER 654 O): 2.99
H-bond distance to MASP-2 SER 657 atom O (Table A1 (H-Bonds), SER 657 O): 2.75
van der Waals contact distance, MASP-2 PRO 606 atom CG (Table A2-4): 3.71
van der Waals contact distance, MASP-2 amino acid atom to compound atom (Table A2-10, ARG 630 NH2, GLY 631, ASP 632, SER 633): 3.11
van der Waals contact distance, SER 654 C to compound atom (Table A2-11): 3.83
van der Waals contact distance, TRP 655 CA to compound atom (Table A2-12): 3.42
van der Waals contact distance TRP 655 atom O (Table A2-13, MASP-2 TRP 655 O): 3.77
van der Waals contact distance SER 657 atom C (Table A2-14, MASP-2 SER 657 C, columns c12-c13 (inferred)): 3.51
Ligand-pharmacophore element distance, pharmacophore element C2: 2.4
Ligand-pharmacophore element distance, pharmacophore element C3: 0
Ligand-pharmacophore element distance, pharmacophore element C4: 0
Ligand-pharmacophore element distance, pharmacophore element C5: 0
Ligand-pharmacophore element distance, pharmacophore element C6: 0
Ligand-pharmacophore element distance, pharmacophore element C7: 0
Ligand-pharmacophore element distance, pharmacophore element CA1: 0.28
Ligand-pharmacophore element distance, pharmacophore element CA2: 0
Ligand-pharmacophore element distance, pharmacophore element CA3: 0
Ligand-pharmacophore element distance, pharmacophore element CA4: 0
Ligand-pharmacophore element distance, pharmacophore element CA5: 0.98
Ligand-pharmacophore element distance, pharmacophore element CA6: 0
Ligand-pharmacophore element distance, pharmacophore element H1 (Table A4-2, element H1): 0
Ligand-pharmacophore element distance, pharmacophore element H2 (Table A4-2, element H2): 0
Ligand-pharmacophore element distance, pharmacophore element H3 (Table A4-2, element H3): 1.08
Ligand-pharmacophore element distance, pharmacophore element H4 (Table A4-2, element H4): 3.56
Ligand-pharmacophore element distance, pharmacophore element N1 (Table A4-2, element N1): 1.87
Ligand-pharmacophore element distance, pharmacophore element N2 (Table A4-2, element N2): 0.86
Ligand-pharmacophore element distance, pharmacophore element O1 (Table A4-2, element O1): 0.39
Ligand-pharmacophore element distance, pharmacophore element O2 (Table A4-2, element O2): 0.49
Ligand-pharmacophore element distance, pharmacophore element O3 (Table A4-2, element O3): 0
Ligand-pharmacophore element distance, pharmacophore element O4 (Table A4-2, element O4): 0
d(CA1,N1) [1]: 3.64
d(CA1,O1) [1]: 4.35
d(CA1,O2) [1]: 4.19
d(H4,O1) [1]: 4.86
d(H4,O2) [1]: 4.31
d(O1,O2) [1]: 3.48
d(CA5,N2) [2]: 3.72
d(N2,C2) [2]: 2.26
d(O2,H3) [2]: 2.74
d(O2,N2) [2]: 3.03
a(CA1, O1, O2) (Table A6-1 pharmacophore angle): 111.64
a(O1, O2, H4) (Table A6-1 pharmacophore angle): 135.95
A(N1, CA1, O1) a) (Table A6-1 pharmacophore angle, all compounds with protonatable center N1 except Methyl-amino-pyridine): 160.69
a(O1, O2, H3): 135.88
a(O1, O2, N2): 137.69
a(O2, N2, C2): 100.68
Pharmacophore torsion angle a(H4, O1, O2, H3) [3]: 93.33
Pharmacophore torsion angle a(H4, O1, O2, N2) [3]: 142.83
Pharmacophore torsion angle a(N1, CA1, O2, H4) [3]: −127.27
Pharmacophore torsion angle a(O1, H4, O2, CA1) [3]: −61.32
Pharmacophore torsion angle a(O1, O2, N2, C2) [3]: 68.39
Pharmacophore torsion angle a(O1, O2, N2, CA5) [4]: 137.68
Pharmacophore protein distance to MET_658 (first MET_658 column): 2.86
Pharmacophore protein distance to MET_658 (second MET_658 column): 3.46
Pharmacophore protein distance to GLY_528: 3.79
Pharmacophore protein distance to PHE_529: 3.09
Pharmacophore protein distance to PRO_608: 2.97
Pharmacophore protein distance to SER_611: 3.32
Pharmacophore protein distance to TRP_655: 3.27
Compound: N=C(N)c1ccc(CNC(=O)[C@@H]2CCN2C(=O)[C@H]2Cc3ccccc3CN2)cc1 [compound 1034]

Compound: C[C@H](NC(=O)[C@H](N)CCc1ccccc1)C(=O)NCc1ccc(N)nc1.Cl.Cl [1007_2]
Ligand-pharmacophore element distance, pharmacophore element C2: 0
Ligand-pharmacophore element distance, pharmacophore element C3: 0
Ligand-pharmacophore element distance, pharmacophore element C4: 0
Ligand-pharmacophore element distance, pharmacophore element C5: 0
Ligand-pharmacophore element distance, pharmacophore element C6: 0
Ligand-pharmacophore element distance, pharmacophore element C7: 0
Ligand-pharmacophore element distance, pharmacophore element CA1: 0.59
Ligand-pharmacophore element distance, pharmacophore element CA2: 0.86
Ligand-pharmacophore element distance, pharmacophore element CA3: 0
Ligand-pharmacophore element distance, pharmacophore element CA4: 0
Ligand-pharmacophore element distance, pharmacophore element CA5: 0
Ligand-pharmacophore element distance, pharmacophore element CA6: 0
d(CA1,N1)2 [1]: 1.38
d(CA1,O1) [1]: 4.52
d(CA1,O2) [1]: 4.00
d(H4,O1) [1]: 3.69
d(H4,O2) [1]: 2.76
d(O1,O2) [1]: 3.63
d(N2,CA2) [2]: 6.11
d(O2,H3) [2]: 4.67
d(O2,N2) [2]: 2.86
a(CA1, O1, O2) (Table A6-1 pharmacophore angle): 107.55
a(O1, O2, H4) (Table A6-1 pharmacophore angle): 113.36
a(N1, CA1, O1) b) (Table A6-1 pharmacophore angle, Methyl-amino-pyridine compounds): 174.22
a(O1, O2, H3): 145.74
a(O1, O2, N2): 133.10
a(O2, N2, CA2): 153.46
Pharmacophore torsion angle a(H4, O1, O2, H3) [3]: 47.32
Pharmacophore torsion angle a(H4, O1, O2, N2) [3]: 126.25
Pharmacophore torsion angle a(N1, CA1, O1, H4) [3]: 48.80
Pharmacophore torsion angle a(O1, H4, O2, CA1) [3]: −94.30
Pharmacophore torsion angle a(O1, O2, N2, CA2) [4]: 131.44
Pharmacophore protein distance to MET_658 (first MET_658 column): 2.59
Pharmacophore protein distance to MET_658 (second MET_658 column): 3.37
Pharmacophore protein distance to GLY_528: 3.72
Pharmacophore protein distance to PHE_529: 3.20
Pharmacophore protein distance to PRO_608: 3.12
Pharmacophore protein distance to SER_611: 2.21
Pharmacophore protein distance to TRP_655: 3.60

Compound: C[C@H](NC(=O)[C@H]1C[C@@H](c2ccccc2)CCN1)C(=O)NCc1cc(Cl)ccc1O.Cl [1078_8]
Ligand-pharmacophore element distance, pharmacophore element C2: 0.85
Ligand-pharmacophore element distance, pharmacophore element C3: 0
Ligand-pharmacophore element distance, pharmacophore element C4: 0
Ligand-pharmacophore element distance, pharmacophore element C5: 0.78
Ligand-pharmacophore element distance, pharmacophore element C6: 0
Ligand-pharmacophore element distance, pharmacophore element C7: 0
Ligand-pharmacophore element distance, pharmacophore element CA1: 1.67
Ligand-pharmacophore element distance, pharmacophore element CA2: 0.92
Ligand-pharmacophore element distance, pharmacophore element CA3: 0
Ligand-pharmacophore element distance, pharmacophore element CA4: 0
Ligand-pharmacophore element distance, pharmacophore element CA5: 0
Ligand-pharmacophore element distance, pharmacophore element CA6: 0
d(CA1,C5) [1]: 3.10
d(CA1,O1) [1]: 4.33
d(CA1,O2) [1]: 4.59
d(CA1,O4) [1]: 2.75
d(H4,O1) [1]: 2.28
d(H4,O2) [1]: 2.53
d(O1,O2) [1]: 2.73
d(O4,H2) [1]: 0.98
d(N2,C2) [2]: 1.44
d(N2,CA2) [2]: 5.66
d(O2,H3) [2]: 2.69
d(O2,N2) [2]: 2.85
a(C5, CA1, O1) (Table A6-1 pharmacophore angle): 159.05
a(CA1, O1, O2) (Table A6-1 pharmacophore angle): 112.99
a(CA1, O4, H2) (Table A6-1 pharmacophore angle): 125.48
a(O1, CA1, O4) (Table A6-1 pharmacophore angle): 73.28
a(O1, O2, H4) (Table A6-1 pharmacophore angle): 111.09
a(O1, O2, H3): 140.66
a(O1, O2, N2): 145.13
a(O2, N2, C2): 125.44
a(O2, N2, CA2): 153.81
Pharmacophore torsion angle a(C5, CA1, O1, H4) [3]: 5.11
Pharmacophore torsion angle a(H4, O1, O2, H3) [3]: −134.33
Pharmacophore torsion angle a(H4, O1, O2, N2) [3]: −122.87
Pharmacophore torsion angle a(O1, H4, O2, CA1) [3]: −58.50
Pharmacophore torsion angle a(O1, O2, N2, C2) [3]: 135.84
Pharmacophore torsion angle a(O1, O2, N2, CA2) [4]: 143.43
